Common to all, as to type: in vivo
Data set [1] concerns directly sowed Oryza sativa. Kind of data set: Test Example 3: effect on crop by application to foliage (Wagner pot, water depth 0.1-0.5 cm). The conditions noted are these: Nineteenth Table; application to foliage; application herbicide amount 320 g/ha. The gist of the method:
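Foliar spray, 14-day-old plants, emulsion diluted to target g/ha; rated 3 wk post-application, 0–5 scale (0 ≤5%, 5 ≥90% herbicidal ratio). Greenhouse 25–30 °C, alluvial soil.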

Another data set relates to Veronica persica. Kind of data set: Test Example 4: herbicidal effect by application to foliage (diluvial soil, plastic box). The conditions noted are these: for R: herbicidal effect on Veronica persica: application to foliage, application herbicide amount 320 g/ha. In short, it runs like this: (§1)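 Plants were grown in sterilized diluvial soil in a greenhouse at 25-30° C for 14 days, then sprayed on stems and leaves with water-diluted emulsion formulation at set rates in g/ha. Weed control and crop injury were scored 3 weeks after treatment on a 0-5 herbicidal-ratio scale, from 0 (≤5%) to 5 (≥90%).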

A further data set deals with Alopecurus myosuroides. The data set is described as above. To be noted: for J: herbicidal effect on Alopecurus myosuroides: application to foliage, application herbicide amount 320 g/ha. The gist of the method:
as §1

In another data set the test system is Lolium multiflorum Lam. Described as above. The conditions noted are these: for K: herbicidal effect on Lolium multiflorum Lam.: application to foliage, application herbicide amount 320 g/ha. In short, it runs like this: as §1
Another data set deals with Avena fatua. The data set is described as above. The conditions noted are these: for I: herbicidal effect on Avena fatua: application to foliage, application herbicide amount 320 g/ha. The gist of the method:
as §1

The next data set deals with Chenopodium album. The data set is described as above. The conditions noted are these: for O: herbicidal effect on Chenopodium album: application to foliage, application herbicide amount 320 g/ha. In short, it runs like this: as §1
Another data set deals with Amaranthus retroflexus. The description is as above. To be noted: for N: herbicidal effect on Amaranthus retroflexus: application to foliage, application herbicide amount 320 g/ha. In short, it runs like this: as §1
In data set [2] the test system is Echinochloa crus-galli var. crus-galli. The data set is described as above. To be noted: for H: herbicidal effect on Echinochloa crus-galli var. crus-galli: application to foliage, application herbicide amount 320 g/ha. The gist of the method:
as §1

For the next data set, the system named is Digitaria ciliaris. Described as above. To be noted: for F: herbicidal effect on Digitaria ciliaris: application to foliage, application herbicide amount 320 g/ha. In short, it runs like this:
as §1

Another data set has as its system Abutilon theophrasti. The data set is described as above. To be noted: for M: herbicidal effect on Abutilon theophrasti: application to foliage, application herbicide amount 320 g/ha. The gist of the method:
as §1

For the next data set, the system named is Stellaria media. Described as above. To be noted: for P: herbicidal effect on Stellaria media: application to foliage, application herbicide amount 320 g/ha. In short, it runs like this:
as §1

Another data set has as its system Galium spurium. The description is as above. To be noted: for Q: herbicidal effect on Galium spurium: application to foliage, application herbicide amount 320 g/ha. In short, it runs like this: as §1
The test system of a further data set is Apera spica-venti. Described as above. To be noted: for L: herbicidal effect on Apera spica-venti.: application to foliage, application herbicide amount 320 g/ha. The gist of the method: as §1
The test system of the next data set is Setaria viridis. Described as above. The conditions noted are these: for G: herbicidal effect on Setaria viridis: application to foliage, application herbicide amount 320 g/ha. In short, it runs like this: as §1
Where [3] appears, read: Application herbicide amount 320 g/ha, foliage application.

These results are taken from patent publication US9708314B2, “Heterocyclic amide compound” (NISSAN CHEMICAL INDUSTRIES, LTD., priority 2013, dated 2017).

For `Cn1nnnc1NC(=O)c1ccc(C(F)(F)F)n2c(Cl)nnc12` [2-008], the “b (effect on crop grade)” value in data set [1] is given as 0 (Herbicidal ratio of 5% or less (almost no effect)). The “R: herbicidal effect on Veronica persica” value in the data set with Veronica persica is 4 (Herbicidal ratio of 70% or more and less than 90%). Further, in the data set with Alopecurus myosuroides, the “J: herbicidal effect on Alopecurus myosuroides” value (shortened to “J: herbicidal effect”) was 1 (Herbicidal ratio of 5% or more and less than 20%). Besides, the “K: herbicidal effect on Lolium multiflorum Lam.” value (shortened to “K: herbicidal effect”) in the data set with Lolium multiflorum Lam. was 2 (Herbicidal ratio of 20% or more and less than 40%). In the data set on Avena fatua, the “I: herbicidal effect on Avena fatua” value is 3 (Herbicidal ratio of 40% or more and less than 70%). Moreover, the “O: herbicidal effect on Chenopodium album” value (“O: herbicidal effect” below) in the data set on Chenopodium album is reported as 5 (Herbicidal ratio of 90% or more (almost completely withered)). In the data set with Amaranthus retroflexus, the “N: herbicidal effect on Amaranthus retroflexus” value (“N: herbicidal effect” below) is reported as 5 (Herbicidal ratio of 90% or more (almost completely withered)). Besides, the “H: herbicidal effect on Echinochloa crus-galli var. crus-galli” value (“H: herbicidal effect” for short) in data set [2] was 4 (Herbicidal ratio of 70% or more and less than 90%). The “F: herbicidal effect on Digitaria ciliaris” value (from here on “F: herbicidal effect”) with Digitaria ciliaris is 3 (Herbicidal ratio of 40% or more and less than 70%). The “M: herbicidal effect on Abutilon theophrasti” value (from here on “M: herbicidal effect”) with Abutilon theophrasti is 5 (Herbicidal ratio of 90% or more (almost completely withered)). In the data set with Stellaria media, the “P: herbicidal effect on Stellaria media” value was 5 (Herbicidal ratio of 90% or more (almost completely withered)). Further, the “Q: herbicidal effect on Galium spurium” value in the data set on Galium spurium was 3 (Herbicidal ratio of 40% or more and less than 70%). Also, the “L: herbicidal effect on Apera spica-venti.” value (“L: herbicidal effect” below) in the data set with Apera spica-venti. was 1 (Herbicidal ratio of 5% or more and less than 20%). In addition, the “G: herbicidal effect on Setaria viridis” value in the data set with Setaria viridis is 2 (Herbicidal ratio of 20% or more and less than 40%).

On to `CSc1nnc2c(C(=O)Nc3nnnn3C)ccc(C(F)(F)F)n12` [2-013], for which the “b (effect on crop grade)” value in [1] is recorded as 5 (Herbicidal ratio of 90% or more (almost completely withered)). Besides, the “R: herbicidal effect on Veronica persica” value in the data set with Veronica persica is 4 (Herbicidal ratio of 70% or more and less than 90%). Moreover, in the data set with Alopecurus myosuroides, the “J: herbicidal effect” value was 3 (Herbicidal ratio of 40% or more and less than 70%). The “K: herbicidal effect” value in the data set with Lolium multiflorum Lam. is 3 (Herbicidal ratio of 40% or more and less than 70%). Also, the “I: herbicidal effect on Avena fatua” value in the data set with Avena fatua was 4 (Herbicidal ratio of 70% or more and less than 90%). Moreover, in the data set with Chenopodium album, the “O: herbicidal effect” value is 5 (Herbicidal ratio of 90% or more (almost completely withered)). The “N: herbicidal effect” value with Amaranthus retroflexus was 5 (Herbicidal ratio of 90% or more (almost completely withered)). The “H: herbicidal effect” value in data set [2] was 5 (Herbicidal ratio of 90% or more (almost completely withered)). In addition, in the data set with Digitaria ciliaris, the “F: herbicidal effect” value is 5 (Herbicidal ratio of 90% or more (almost completely withered)). Besides, the “M: herbicidal effect” value in the data set with Abutilon theophrasti is recorded as 5 (Herbicidal ratio of 90% or more (almost completely withered)). Besides, the “P: herbicidal effect on Stellaria media” value in the data set with Stellaria media is reported as 5 (Herbicidal ratio of 90% or more (almost completely withered)). The “Q: herbicidal effect on Galium spurium” value in the data set on Galium spurium was 4 (Herbicidal ratio of 70% or more and less than 90%). In addition, the “L: herbicidal effect” value in the data set with Apera spica-venti. was 4 (Herbicidal ratio of 70% or more and less than 90%). Moreover, in the data set on Setaria viridis, the “G: herbicidal effect on Setaria viridis” value is given as 5 (Herbicidal ratio of 90% or more (almost completely withered)).

Regarding `Cc1cc(-c2nnc3c(C(=O)Nc4nnnn4C)ccc(C(F)(F)F)n23)no1` [2-017], the “b (effect on crop grade)” value in [1] is reported as 5 (Herbicidal ratio of 90% or more (almost completely withered)). For the same compound, the “R: herbicidal effect on Veronica persica” value in the data set with Veronica persica is listed as 5 (Herbicidal ratio of 90% or more (almost completely withered)). In addition, the “J: herbicidal effect” value in the data set with Alopecurus myosuroides is 3 (Herbicidal ratio of 40% or more and less than 70%). Besides, in the data set with Lolium multiflorum Lam., the “K: herbicidal effect” value is 2 (Herbicidal ratio of 20% or more and less than 40%). In addition, the “I: herbicidal effect on Avena fatua” value in the data set on Avena fatua is 4 (Herbicidal ratio of 70% or more and less than 90%). Further, the “O: herbicidal effect” value in the data set with Chenopodium album is recorded as 5 (Herbicidal ratio of 90% or more (almost completely withered)). Moreover, the “N: herbicidal effect” value in the data set on Amaranthus retroflexus is recorded as 5 (Herbicidal ratio of 90% or more (almost completely withered)). In data set [2], the “H: herbicidal effect” value was 5 (Herbicidal ratio of 90% or more (almost completely withered)). Further, in the data set with Digitaria ciliaris, the “F: herbicidal effect” value is recorded as 5 (Herbicidal ratio of 90% or more (almost completely withered)). Besides, the “M: herbicidal effect” value in the data set with Abutilon theophrasti is given as 5 (Herbicidal ratio of 90% or more (almost completely withered)). The “P: herbicidal effect on Stellaria media” value with Stellaria media is on record as 5 (Herbicidal ratio of 90% or more (almost completely withered)). Besides, the “Q: herbicidal effect on Galium spurium” value in the data set with Galium spurium is 1 (Herbicidal ratio of 5% or more and less than 20%). Moreover, the “L: herbicidal effect” value with Apera spica-venti. is 4 (Herbicidal ratio of 70% or more and less than 90%). Also, the “G: herbicidal effect on Setaria viridis” value in the data set on Setaria viridis is given as 5 (Herbicidal ratio of 90% or more (almost completely withered)).

On to `CCN(CC)c1nnc2c(C(=O)Nc3nnc(C)o3)ccc(C(F)(F)F)n12` [1-135], for which the “b (effect on crop grade)” value in data set [1] is 1 (Herbicidal ratio of 5% or more and less than 20%). Moreover, the “R (Veronica persica) herbicidal effect grade” value in the data set with Veronica persica (setting [3]) was 1 (Herbicidal ratio of 5% or more and less than 20%). Further, in the data set on Alopecurus myosuroides (setting [3]), the “J (Alopecurus myosuroides) herbicidal effect grade” value was 1 (Herbicidal ratio of 5% or more and less than 20%). Also, in the data set with Lolium multiflorum Lam. (setting [3]), the “K (Lolium multiflorum Lam.) herbicidal effect grade” value is 1 (Herbicidal ratio of 5% or more and less than 20%). For the same compound, the “I (Avena fatua) herbicidal effect grade” value in the data set with Avena fatua (setting [3]) is 1 (Herbicidal ratio of 5% or more and less than 20%). Besides, in the data set on Chenopodium album (setting [3]), the “O (Chenopodium album) herbicidal effect grade” value is 5 (Herbicidal ratio of 90% or more (almost completely withered)). Further, the “N (Amaranthus retroflexus) herbicidal effect grade” value in the data set with Amaranthus retroflexus (setting [3]) was 3 (Herbicidal ratio of 40% or more and less than 70%). The “H (Echinochloa crus-galli var. crus-galli) herbicidal effect grade” value in data set [2] (setting [3]) is 4 (Herbicidal ratio of 70% or more and less than 90%). Besides, in the data set on Digitaria ciliaris (setting [3]), the “F (Digitaria ciliaris) herbicidal effect grade” value is 4 (Herbicidal ratio of 70% or more and less than 90%). The “M (Abutilon theophrasti) herbicidal effect grade” value in the data set on Abutilon theophrasti (setting [3]) is 3 (Herbicidal ratio of 40% or more and less than 70%). The “P (Stellaria media) herbicidal effect grade” value in the data set on Stellaria media (setting [3]) was 4 (Herbicidal ratio of 70% or more and less than 90%). Further, the “Q (Galium spurium) herbicidal effect grade” value in the data set on Galium spurium (setting [3]) is reported as 0 (Herbicidal ratio of 5% or less (almost no effect)). Moreover, in the data set on Apera spica-venti. (setting [3]), the “L (Apera spica-venti.) herbicidal effect grade” value was 1 (Herbicidal ratio of 5% or more and less than 20%). Further, the “G (Setaria viridis) herbicidal effect grade” value in the data set with Setaria viridis (setting [3]) was 3 (Herbicidal ratio of 40% or more and less than 70%).

Regarding `Cn1nnnc1NC(=O)c1ccc(C(F)(F)F)n2c(-c3ccccc3)nnc12` [2-007], the “b (effect on crop grade)” value in data set [1] was 4 (Herbicidal ratio of 70% or more and less than 90%). The “R: herbicidal effect on Veronica persica” value in the data set on Veronica persica was 5 (Herbicidal ratio of 90% or more (almost completely withered)). For the same compound, the “J: herbicidal effect” value in the data set on Alopecurus myosuroides is 2 (Herbicidal ratio of 20% or more and less than 40%). For the same compound, the “K: herbicidal effect” value in the data set on Lolium multiflorum Lam. was 2 (Herbicidal ratio of 20% or more and less than 40%). Besides, in the data set with Avena fatua, the “I: herbicidal effect on Avena fatua” value is 3 (Herbicidal ratio of 40% or more and less than 70%). In addition, the “O: herbicidal effect” value in the data set on Chenopodium album is 5 (Herbicidal ratio of 90% or more (almost completely withered)). The “N: herbicidal effect” value with Amaranthus retroflexus is reported as 5 (Herbicidal ratio of 90% or more (almost completely withered)). The “H: herbicidal effect” value in data set [2] is recorded as 5 (Herbicidal ratio of 90% or more (almost completely withered)). The “F: herbicidal effect” value in the data set with Digitaria ciliaris was 5 (Herbicidal ratio of 90% or more (almost completely withered)). Further, in the data set with Abutilon theophrasti, the “M: herbicidal effect” value is on record as 5 (Herbicidal ratio of 90% or more (almost completely withered)). Moreover, in the data set with Stellaria media, the “P: herbicidal effect on Stellaria media” value is given as 5 (Herbicidal ratio of 90% or more (almost completely withered)). Further, the “Q: herbicidal effect on Galium spurium” value in the data set on Galium spurium was 1 (Herbicidal ratio of 5% or more and less than 20%). Moreover, the “L: herbicidal effect” value in the data set on Apera spica-venti. is 4 (Herbicidal ratio of 70% or more and less than 90%). For the same compound, the “G: herbicidal effect on Setaria viridis” value with Setaria viridis was 4 (Herbicidal ratio of 70% or more and less than 90%).
